The values that follow come from article PMC5917010, “Structural basis for GPR40 allosteric agonism and incretin stimulation” (Nature Communications, 2018).

In general, EC50 refers to the concentration giving half of the maximal effect. The term Ki denotes a dissociation constant, usually derived from enzyme kinetics or from competition with a known ligand. Broadly, the IC50 is the concentration needed to halve the response being measured.

For test [1], the target named is T1, Human GPR120 (Homo sapiens, UniProt Q5NUL3).
T1 sequence (Q5NUL3 1-361): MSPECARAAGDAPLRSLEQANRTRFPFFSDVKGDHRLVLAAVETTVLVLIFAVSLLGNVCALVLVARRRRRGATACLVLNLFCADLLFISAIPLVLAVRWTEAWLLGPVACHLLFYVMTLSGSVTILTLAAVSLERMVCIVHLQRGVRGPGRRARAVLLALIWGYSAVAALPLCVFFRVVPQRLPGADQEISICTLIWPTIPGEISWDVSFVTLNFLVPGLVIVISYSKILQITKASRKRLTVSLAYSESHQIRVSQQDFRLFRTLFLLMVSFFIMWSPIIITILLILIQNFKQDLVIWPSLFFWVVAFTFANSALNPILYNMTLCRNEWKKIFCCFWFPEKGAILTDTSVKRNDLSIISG
Kind of test: Human GPR120 Calcium (FLIPR). The class given is cell-based. To be noted: Supplementary Table 1.

For a further test, the target named is T2, human GPR40 (A2 site) (Homo sapiens, UniProt O14842).
T2 construct: full length recombinant human GPR40 (GPR40) cDNA; expressed in transfected cells; host or cells: HEK 293, stably transfected; crude cell surface membranes
Nature of the test: A2 site radioligand binding with [3H]-AM-1638. On the procedure:
Crude cell surface membranes were prepared from human embryonic kidney 293 (HEK 293) cells stably transfected (for the wild type) or transiently transfected (for the mutants and corresponding wild type) with full length recombinant human GPR40 (GPR40) cDNA, using differential centrifugation methods.
A2 Site Binding. 10 µL of compound diluted in 100% DMSO and 90 µL of Assay Buffer (50 mM Tris-HCl, pH 7.5, 10 mM CaCl2, 10 mM MgCl2, 0.1% w/v Bacitracin, 2.5% w/v dextran charcoal-treated FBS) were added to a deep 96-well polypropylene assay plate (Beckman Coulter). Two hundred μl of [^3H]-AM-1638 (84 Ci/mmol, Quotient Bioresearch Radiochemicals, Ltd.; 0.5 nM final concentration) and 200 µL of GPR40 membranes (5 µg/well), both diluted in Assay Buffer, were added to the assay plate, followed by a 1 min shake and a 1 h incubation at room temperature (22 °C).
Assays were terminated by filtration through GF/C glass fiber filtermats (Perkin Elmer) presoaked in 50 mM Tris–HCl, pH 7.5, using a Mach III cell harvester (TomTec). Filtermats were washed two times with 5 mL of ice-cold 50 mM Tris–HCl, pH 7.5 buffer, dried 1 h in a convection oven at 60 °C and embedded with Meltilex A solid scintillant (Perkin Elmer). Radioactivity was determined as counts per min (cpm) using a Trilux Microbeta plate scintillation counter (Perkin Elmer).

In another test the test system is GFP. Kind of test: cAMP accumulation assay, GFP control. On the technique in general: Cyclic AMP is a second messenger, typically raised through Gs and lowered through Gi signalling.
The target of test [2] is T1, Human GPR120. Kind of test: Human GPR120 binding. The note with it: Supplementary Table 1.
A further test has as its target T3, human GPR40 (Homo sapiens, UniProt O14842).
T3 construct: HEK293 cells stably overexpressing full length human GPR40; expressed in transfected cells
Kind of test: Ca2+ mobilization assay (FLIPR), HEK293 cells stably overexpressing GPR40. The note with it: for Ca2+ mobilization (FLIPR) Top: relative to 500 µM linoleic acid; for agonist type in Ca2+ mobilization assay: relative to 500 µM of the natural ligand, linoleic acid. The class given is cell-based. The method, then: HEK293 cells stably overexpressing full length human GPR40 were plated (50K cells/well) into 96-well microtiter plates using Dulbecco’s Modified Eagle’s Medium (DMEM) supplemented with 10% certified fetal bovine serum (FBS), 20 mM HEPES, pH 7.4, 1 mM Sodium Pyruvate, 100 U/mL Penicillin, 100 µg/mL Streptomycin, and 800 µg/mL Geneticin. The cells were incubated overnight at 37 °C and 5% CO2. Calcium 4 dye (Molecular Devices) diluted in assay buffer was added (100 µL per well) to the cell plates, followed by a 1 h incubation in the dark at 25 °C. Test compounds were serially diluted three-fold in 100% DMSO and immediately diluted in assay buffer. […] Receptor activation was immediately measured as an increase in intracellular calcium using the FLIPR® over 3 min. To determine agonist responses, relative fluorescence units (RFUs) over 60 reads were calculated per well and used to calculate percent stimulation relative to 500 µM of the natural ligand, linoleic acid, response. EC50 values were calculated by plotting test compound concentration vs. percent stimulation using a 4-parameter logistic curve fitting equation.
Background: Calcium assays in cells follow changes in intracellular calcium, usually with a dye or a luminescent sensor.

The test system of a further test is wild type C57BL/6 mice. Kind of test: Oral glucose tolerance test (OGTT) in wild type C57BL/6 mice. In kind it is in vivo, mouse. The method, then: Eight to thirteen week old male C57BL/6 or KO mice were used. The day before the study, at 1600 hours, animals were transferred into clean cages and food was removed. The following morning (~0800 hours), mice were randomized by block randomization to treatment groups (N = 5–7 per group) so each group had similar mean and standard deviation of body weight and blood glucose. […] Animals were dosed with vehicle (0.5% MC/0.25% Tween-80) or the test article by oral gavage. Group allocations were not blinded from the experimenters who collected the data. After 60 min compound treatment animals were then given an oral gavage of glucose (2 g/kg). At 0, 15, 30, 60, and 120 min post oral glucose, two glucose readings via glucometers were obtained. The average of two glucose readings was reported at each time point. Data were expressed as mean±standard error (s.e.m.). Blood glucose values were analyzed using ANOVA with repeated measures. Cook’s distance was also calculated from linear regression. All animals were included in the analysis with their individual averaged Cook’s distance < 1. Dunnett’s comparison was performed at each time point by R program. Significance is denoted at p < 0.05.

Test [3] addresses T1, Human GPR120. Nature of the test: Human GPR120 b-arrestin. In kind it is cell-based. The note with it: Supplementary Table 1.
A further test has as its target T4, human PPARdelta (Homo sapiens, UniProt Q03181).
T4 sequence (Q03181 1-441): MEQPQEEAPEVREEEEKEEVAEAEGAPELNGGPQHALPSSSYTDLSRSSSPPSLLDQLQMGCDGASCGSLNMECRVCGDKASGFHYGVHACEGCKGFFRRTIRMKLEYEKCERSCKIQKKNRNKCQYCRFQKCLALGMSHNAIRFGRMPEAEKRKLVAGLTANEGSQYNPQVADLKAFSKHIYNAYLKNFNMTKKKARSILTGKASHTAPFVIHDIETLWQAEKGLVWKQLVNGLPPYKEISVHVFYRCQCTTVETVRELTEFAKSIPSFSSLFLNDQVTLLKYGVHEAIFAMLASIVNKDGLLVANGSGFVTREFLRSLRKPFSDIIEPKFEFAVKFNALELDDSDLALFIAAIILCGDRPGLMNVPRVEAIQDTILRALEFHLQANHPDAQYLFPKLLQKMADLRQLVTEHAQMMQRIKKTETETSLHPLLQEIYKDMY
Kind of test: human PPARdelta binding. To be noted: Supplementary Table 1.

Several values for one entry are separate records, joined by “and”; a condition that tells them apart may be missing. Equal entries are not always repeated. Where two headings read alike, the source gives them in different places.

T3 sequence (O14842 whole entry): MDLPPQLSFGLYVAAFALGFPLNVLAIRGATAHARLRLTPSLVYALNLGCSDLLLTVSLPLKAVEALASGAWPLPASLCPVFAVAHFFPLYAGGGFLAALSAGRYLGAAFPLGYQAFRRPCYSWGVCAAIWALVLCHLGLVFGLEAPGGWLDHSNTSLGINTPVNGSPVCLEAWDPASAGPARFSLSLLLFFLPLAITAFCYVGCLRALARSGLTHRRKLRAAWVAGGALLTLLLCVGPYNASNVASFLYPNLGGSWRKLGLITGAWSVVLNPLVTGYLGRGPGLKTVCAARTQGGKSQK
T2 sequence (O14842 whole entry): as above
Method for GFP: HEK293 cells transiently transfected with Promega’s cAMP response element (CRE/luc2P) and a GPR40 construct were plated (40K cells/well) into 96-well microtiter plates using Dulbecco’s Modified Eagle’s Medium (DMEM) supplemented with 10% FBS, 20 mM HEPES, pH 7.4, 100 U/mL Penicillin, 100 µg/mL Streptomycin, and 800 µg/mL Geneticin. Test compounds were serially diluted three-fold in 100% DMSO and immediately diluted in media. […] EC50 values were calculated using a four-parameter logistic curve fitting equation.

With `COc1ccc(C(=O)N(CC(C)(C)C)c2cccc(C)n2)c(N2CCC(c3cc4ccc([C@@H](CC(=O)O)C5CC5)cc4o3)CC2)c1` [compound 1], the EC50 at Human GPR120 [1] is over 50 µM; in the test on GFP (Homo sapiens, read-out: cAMP accumulation EC50, GFP) it was over 30 µM; on human GPR40 (GPR40-Gαq signaling, stably transfected cells, no TAK-875), 72 nM and ~72 nM; on Human GPR120 [3], over 100 µM. The Ki on human GPR40 (A2 site) (Supplementary Table 1, read-out: Human GPR40 Binding to A2 Ki) was 0.9 nM; at human GPR40 (A2 site) (competitive radioligand binding, membranes from stably transfected cells, Fig. 1a, read-out: Ki in [3H]-AM-1638 binding), 0.81 nM; on Human GPR120 [2], over 100 µM. Besides, the “cooperativity composite factor (Log αβ)” value at human GPR40 (compound 1 with TAK-875, operational model, slope constrained to 1) was 1.46. In addition, the “efficacy modulation cooperativity factor (β)” value at human GPR40 (cooperativity between TAK-875 and compound 1) came out at 14. Moreover, the “average α-factor” value on human GPR40 (cooperativity between TAK-875 and compound 1, averages from Figs. 1a and 8a) is on record as 2.1. Moreover, the “Ca2+ mobilization (FLIPR) Top” value on human GPR40 is reported as 136.3%. For the same compound, the “agonist type in Ca2+ mobilization assay” value at human GPR40 is “full agonist”. In the test with wild type C57BL/6 mice (various oral doses), the “glucose excursion in OGTT” value was “Dose dependent decreases in glucose excursion”. At human PPARdelta, this compound showed an IC50 of over 10 µM.

Consider `Cc1cc(OCCCS(C)(=O)=O)cc(C)c1-c1cccc(COc2ccc3c(c2)OC[C@H]3CC(=O)O)c1` [TAK-875], for which the EC50 at Human GPR120 [1] was over 50 µM. In addition, the “effect on [3H]-AM-1638 binding” value on human GPR40 (A2 site) (addition of unlabeled compound, Supplementary Fig. 1a) is given as “enhanced”. Further, the “cAMP accumulation EC50, GFP” value in the test with GFP (GFP control, Fig. 6c,d) is “no fit”. The compound also came in with a Ki on Human GPR120 [2] of over 100 µM. Further, on human GPR40, the “Ca2+ mobilization (FLIPR) Top” value is 81.67% and the “agonist type in Ca2+ mobilization assay” value is “partial agonist”. Besides, the “glucose in OGTT” value in the test with wild type C57BL/6 mice (30 and 60 mg kg-1) is given as “Decreases in glucose”. The EC50 at Human GPR120 [3] is over 100 µM. This compound also gave an IC50 on human PPARdelta of over 10 µM.
